Results published in patent US20260078108A1, “SOLID FORMS OF A ROCK INHIBITOR” (REDX PHARMA PLC, priority 2022, published 2026).
Where a name gives a salt, the structure may show the parent alone.

What was measured:
Format in all cases: physicochemical
[1] = Longer term stability of HCl salt form II (HPLC, XRPD; 1 and 3 months)
Description: Samples were prepared in duplicate for each condition. At day 0 and at 1 month, and 3 months, the samples were analyzed by HPLC and XRPD to check the purity and crystal form, respectively.

[2] = Solubility testing in water, SGF, FaSSIF, FeSSIF at 37° C.; settings: for Solubility: 37° C.; for Solubility in SGF (in words): comparison with HCl Salt Form 1
Description: About 15 mg of sample was weighed into each sample vial and then 3.0 mL of water, simulated gastric fluid (SGF), Fasted State Simulated Intestinal Fluid (FaSSIF) or Fed State Simulated Intestinal Fluid (FeSSIF) media was added. Samples were prepared in triplicate for each media. The suspensions were kept shaking at 37° C. for up to 24 h. At 0.5, 2 and 24 h, suspensions were filtered and the filtrate was analyzed by HPLC.

[3] = 7-day stability testing of solid forms (HPLC purity, XRPD)
Description: About 10 mg of freebase Form I, HCl salt Form II, Succinate Form I and received HCl salt Form I were placed at 60° C./capped and 40° C./75% RH (open), respectively. Samples were prepared in duplicate for each condition. At day 0 and day 7, the samples were analyzed by HPLC and XRPD to check the purity and crystal form, respectively.

[4] = 25° C.±2° C., 60% RH±5% RH, T1 month
[5] = 25° C.±2° C., 60% RH±5% RH, T3 month
[6] = 40° C.±2° C., 74% RH±5% RH, T1 month
[7] = 40° C.±2° C., 74% RH±5% RH, T3 month
[8] = FaSSIF (pH of media 6.5), 0.5 h
[9] = FeSSIF (pH of media 5.0), 0.5 h
[10] = pH of sample in FaSSIF (pH of media 6.5), 0.5 h
[11] = pH of sample in FaSSIF (pH of media 6.5), 2 h
[12] = pH of sample in FaSSIF (pH of media 6.5), 24 h
[13] = pH of sample in FeSSIF (pH of media 5.0), 0.5 h
[14] = pH of sample in FeSSIF (pH of media 5.0), 2 h
[15] = pH of sample in FeSSIF (pH of media 5.0), 24 h
[16] = pH of sample in SGF (pH of media 1.2), 0.5 h
[17] = pH of sample in SGF (pH of media 1.2), 2 h
[18] = pH of sample in SGF (pH of media 1.2), 24 h
[19] = pH of sample in Water (pH of media 7.9), 0.5 h
[20] = pH of sample in Water (pH of media 7.9), 2 h
[21] = pH of sample in Water (pH of media 7.9), 24 h

With `NCc1ccc(C(=O)Nc2ccncc2F)cc1-c1cccc(C(=O)Nc2ccc(SC[C@H]3CCOC3=O)cc2)c1` [HCl salt Form II] the “Longer term stability (in words)” value ([1]; 25° C./60% RH and accelerated 40° C./75% RH) was “stable for up to 3 months even under accelerated conditions”, the “Assay by HPLC (water and solvent free)(area)” value ([1]; 25° C.±2° C., 60% RH±5% RH, T0) was 101.6% and the “Polymorphism by XRPD” value ([1]; 25° C.±2° C., 60% RH±5% RH, T0) was “Form II”. The “Total impurities by HPLC” value ([1]; 25° C.±2° C., 60% RH±5% RH, T0) was “impurities: 1.0%”, the “Water Content” value ([1]; 25° C.±2° C., 60% RH±5% RH, T0) was 1.8% and the “Assay by HPLC (water and solvent free)(area)” value [1, 4] was 101.4%. For the same compound, the “Polymorphism by XRPD” value [1, 4] was “Form II”, the “Total impurities by HPLC” value [1, 4] was “impurities: 1.1%” and the “Water Content” value [1, 4] was 1.6%. The “Assay by HPLC (water and solvent free)(area)” value [1, 5] was 101.2%, the “Polymorphism by XRPD” value [1, 5] was “Form II” and the “Total impurities by HPLC” value [1, 5] was “impurities: 1.0%”. For the same compound, the “Water Content” value [1, 5] was 1.4%, the “Assay by HPLC (water and solvent free)(area)” value ([1]; 40° C.±2° C., 74% RH±5% RH, T0) was 101.6% and the “Polymorphism by XRPD” value ([1]; 40° C.±2° C., 74% RH±5% RH, T0) was “Form II”. For the same compound, the “Total impurities by HPLC” value ([1]; 40° C.±2° C., 74% RH±5% RH, T0) was “impurities: 1.0%”, the “Water Content” value ([1]; 40° C.±2° C., 74% RH±5% RH, T0) was 1.8% and the “Assay by HPLC (water and solvent free)(area)” value [1, 6] was 101.4%. For the same compound, the “Polymorphism by XRPD” value [1, 6] was “Form II”, the “Total impurities by HPLC” value [1, 6] was “impurities: 1.1%” and the “Water Content” value [1, 6] was 1.5%. The “Assay by HPLC (water and solvent free)(area)” value [1, 7] was 101.4%, the “Polymorphism by XRPD” value [1, 7] was “Form II” and the “Total impurities by HPLC” value [1, 7] was “impurities: 1.1%”. The “Water Content” value [1, 7] was 1.5%, the “Solubility” value [2, 8] was 19 µg/mL and the “Solubility” value ([2]; FaSSIF (pH of media 6.5), 2 h) was 23 µg/mL. The “Solubility” value ([2]; FaSSIF (pH of media 6.5), 24 h) was 6 µg/mL, the “Solubility” value [2, 9] was 64 µg/mL and the “Solubility” value ([2]; FeSSIF (pH of media 5.0), 2 h) was 69 µg/mL. For the same compound, the solubility at 24 h ([2]; Fed State Simulated Intestinal Fluid (FeSSIF), 37 °C, pH 5, fessif, thermodynamic from solid, FeSSIF (pH of media 5.0), 24 h) was 57 µg/mL, the “Solubility” value ([2]; SGF (pH of media 1.2), 0.5 h) was 2550 µg/mL and the “Solubility” value ([2]; SGF (pH of media 1.2), 2 h) was 2591 µg/mL. For the same compound, the “Solubility” value ([2]; SGF (pH of media 1.2), 24 h) was 3372 µg/mL, the “Solubility in SGF (in words)” value [2] was “more soluble in SGF than HCl Salt Form 1” and the “Solubility” value ([2]; Water (pH of media 7.9), 0.5 h) was 716 µg/mL. For the same compound, the “Solubility” value ([2]; Water (pH of media 7.9), 2 h) was 696 µg/mL, the “Solubility” value ([2]; Water (pH of media 7.9), 24 h) was 919 µg/mL and the pH [2, 10] was 6.4. The pH [2, 11] was 6.4, the pH [2, 12] was 6.4 and the pH [2, 13] was 4.9. For the same compound, the pH [2, 14] was 4.9, the pH [2, 15] was 4.9 and the pH [2, 16] was 1.2. The pH [2, 17] was 1.4, the pH [2, 18] was 1.4 and the pH [2, 19] was 4.9. For the same compound, the pH [2, 20] was 4.8, the pH [2, 21] was 6.0 and the “Purity (area %)” value ([3]; Day 0, HPLC, listed as HCI salt Form II) was 98.65 area %. For the same compound, the “XRPD (crystal form)” value ([3]; Day 7, 40° C./75% RH (open)) was “No change”, the “Purity (area %)” value ([3]; Day 7, 40° C./75% RH (open), HPLC, listed as HCI salt Form II) was 98.48 area % and the “Decrease in purity versus Day 0” value ([3]; Day 7, 40° C./75% RH (open), listed as HCI salt Form II) was 0.2 area %. The “XRPD (crystal form)” value ([3]; Day 7, 60° C./capped) was “No change”, the “Purity (area %)” value ([3]; Day 7, 60° C./capped, HPLC, listed as HCI salt Form II) was 98.45 area % and the “Decrease in purity versus Day 0” value ([3]; Day 7, 60° C./capped, listed as HCI salt Form II) was 0.2 area %.

For `NCc1ccc(C(=O)Nc2ccncc2F)cc1-c1cccc(C(=O)Nc2ccc(SC[C@H]3CCOC3=O)cc2)c1` [HCl salt Form I], the “Purity (area %)” value ([3]; Day 0, HPLC, listed as HCI salt Form I) was 97.62 area %, the “XRPD (crystal form)” value ([3]; Day 7, 40° C./75% RH (open)) was “No change” and the “Purity (area %)” value ([3]; Day 7, 40° C./75% RH (open), HPLC, listed as HCI salt Form I) was 97.62 area %. The “XRPD (crystal form)” value ([3]; Day 7, 60° C./capped) was “No change” and the “Purity (area %)” value ([3]; Day 7, 60° C./capped, HPLC, listed as HCI salt Form I) was 97.61 area %.

In the case of `NCc1ccc(C(=O)Nc2ccncc2F)cc1-c1cccc(C(=O)Nc2ccc(SC[C@H]3CCOC3=O)cc2)c1` [Succinate Form I], the “Solubility” value [2, 8] is reported as 5 µg/mL, the “Solubility” value ([2]; FaSSIF (pH of media 6.5), 2 h) is reported as 2 µg/mL and the “Solubility” value ([2]; FaSSIF (pH of media 6.5), 24 h) is reported as 1 µg/mL. The “Solubility” value [2, 9] was 188 µg/mL, the “Solubility” value ([2]; FeSSIF (pH of media 5.0), 2 h) was 173 µg/mL and the “Solubility” value ([2]; FeSSIF (pH of media 5.0), 24 h) was 46 µg/mL. The “Solubility” value ([2]; SGF (pH of media 1.2), 0.5 h) was 3837 µg/mL, the “Solubility” value ([2]; SGF (pH of media 1.2), 2 h) was 3826 µg/mL and the “Solubility” value ([2]; SGF (pH of media 1.2), 24 h) was 4005 µg/mL. For the same compound, the “Solubility in SGF (in words)” value [2] was “more soluble in SGF than HCl Salt Form 1”, the “Solubility” value ([2]; Water (pH of media 7.9), 2 h) was 328 µg/mL and the “Solubility” value ([2]; Water (pH of media 7.9), 24 h) was 546 µg/mL. The pH [2, 10] was 5.7, the pH [2, 11] was 5.7 and the pH [2, 12] was 5.6. The pH [2, 13] was 4.8, the pH [2, 14] was 4.8 and the pH [2, 15] was 4.8. It also gave a pH [2, 16] of 1.3, a pH [2, 17] of 1.4 and a pH [2, 18] of 1.3. For the same compound, the pH [2, 19] was 4.3, the pH [2, 20] was 4.2 and the pH [2, 21] was 4.1. The solubility at 0.5 h ([2]; water, 37 °C, pH 7.9, water, thermodynamic from solid, Water (pH of media 7.9), 0.5 h) was 363 µg/mL, the “Purity (area %)” value ([3]; Day 0, HPLC) was 97.46 area % and the “Decrease in purity versus Day 0” value ([3]; Day 7, 40° C./75% RH (open)) was 0.2 area %. The “XRPD (crystal form)” value ([3]; Day 7, 40° C./75% RH (open)) was “No change”, the “Purity (area %)” value ([3]; Day 7, 40° C./75% RH (open), HPLC) was 97.29 area % and the “Decrease in purity versus Day 0” value ([3]; Day 7, 60° C./capped) was 0.5 area %. For the same compound, the “XRPD (crystal form)” value ([3]; Day 7, 60° C./capped) was “No change” and the “Purity (area %)” value ([3]; Day 7, 60° C./capped, HPLC) was 96.98 area %.
